One assay concerns the target T1, Itk^32K L351A (Homo sapiens, UniProt Q08881, L351A).
T1 construct: Human Itk^171–620 (Itk^32K); GST (cleaved yes); made in house; host or cells: baculovirus-infected Sf9 insect cells
T1 sequence (Q08881 171-620 L351A): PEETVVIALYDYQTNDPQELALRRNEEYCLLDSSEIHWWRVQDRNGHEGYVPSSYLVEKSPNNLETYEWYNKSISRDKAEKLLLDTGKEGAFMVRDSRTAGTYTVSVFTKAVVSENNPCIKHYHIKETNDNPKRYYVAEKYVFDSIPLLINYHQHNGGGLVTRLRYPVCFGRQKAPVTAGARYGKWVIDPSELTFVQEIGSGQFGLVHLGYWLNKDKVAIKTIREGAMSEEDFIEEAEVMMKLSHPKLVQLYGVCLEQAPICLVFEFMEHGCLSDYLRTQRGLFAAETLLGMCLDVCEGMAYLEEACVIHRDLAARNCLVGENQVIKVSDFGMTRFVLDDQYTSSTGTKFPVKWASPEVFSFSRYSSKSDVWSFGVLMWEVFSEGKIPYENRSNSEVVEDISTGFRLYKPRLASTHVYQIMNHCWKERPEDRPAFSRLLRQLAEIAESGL
Description: Fluorescence anisotropy binding of Mant-labelled nucleotides. The source says: (§1) Figure 3 An allosteric switch triggers nucleotide exchange. (a) Hydrophobic stack conservation in Src family kinases. The table illustrates the amino acid identity at each of the three positions in the hydrophobic stack in addition to the invariant tryptophan (Trp260 in Src) for all Src family kinase members. The positions are presented according to their N- to C-terminal order in the primary sequences. Where it was not possible to unambiguously determine the identity of the amino acid contributed by the SH2-kinase variable linker (V3), the residue is denoted by a question mark. (b) Small angle X-ray scattering of Itk^32K L351A (black). The scattering curve for wild type Itk^32K (cyan) is overlaid for comparison. […] (c) Rigid body modelling of Itk^32K L351A and fit to ab initio molecular envelope. Displacement of both the SH3 and SH2 domains is required for a good fit to the experimental scattering curve. (d) Determination of the binding constants of Itk^32K L351A for nucleotides by fluorescence anisotropy. […] (e) Determination of the thermal stabilities and relative binding affinities of non-phosphorylated Src^32KΔC L255A for nucleotides by differential scanning fluorimetry. […] TEXT PRINTED IN THE PICTURE: (d) Mant-ADP: Itk^32K L351A (non-phos) Kd (μM): 21.0 ± 2.1 | (d) Mant-ATP: Itk^32K L351A (non-phos) Kd (μM): 31.7 ± 2.7 | (e) ADP: Src^32KΔC L255A (non-phos) [nuc]1/2 (μM): 310 ± 20; Src^32KΔC L255A (non-phos) Tm^max (°C): 52.9; Src^32KΔC L255A (non-phos) ΔTm^max (°C): + 6.8 | (e) ATP: Src^32KΔC L255A (non-phos) [nuc]1/2 (μM): 100 ± 10; Src^32KΔC L255A (non-phos) Tm^max (°C): 54.2; Src^32KΔC L255A (non-phos) ΔTm^max (°C): + 8.1 | (e) apo: Src^32KΔC L255A (non-phos) Tm^max (°C): 46.1
To establish whether hydrophobic stack disassembly triggers a switch in nucleotide binding of the kinase domain, we measured the binding of both unphosphorylated and activation loop phosphorylated (pY511) Itk^32K L351A to ADP and ATP.
The binding constants for ADP and AMPPNP were determined for Src and Itk proteins by fluorescence anisotropy, using 2′/3′-Mant-labelled nucleotides (Jena Bioscience). Increasing concentrations of Itk^32K, Itk^L351A or Src^32K were incubated with 40 μM Mant-nucleotide in 30 mM Tris pH 7.5, 200 mM NaCl, 5 mM MgCl2, and 1 mM TCEP. Measurements were made with a Perkin Elmer LS50B fluorimeter (λex = 355 nm, λem = 447 nm) at 20 °C. For each data point 50–60 measurements, each with an integration time of 1 s, were averaged. For competition nucleotide displacement assays, 40–80 μM of protein was incubated with 40 μM Mant-ADP until equilibrium was established. Unlabelled nucleotide was titrated into the reaction and fluorescence anisotropy monitored. The equilibrium inhibition constant for the unlabelled nucleotide was calculated from the fitted curve.
(In general: Fluorescence polarisation rises when a labelled molecule tumbles more slowly, as on binding a larger partner.)

The target in another assay is T2, Src^32KΔC L255A (Mus musculus, UniProt P05480, L257A).
T2 construct: mouse Src^85-523 (Src^32KΔC); GST (cleaved yes); made in house; host or cells: baculovirus-infected Sf9 insect cells
Put plainly: Differential scanning fluorimetry (thermal stability vs nucleotide concentration). In kind it is binding. Particulars: Src^32KΔC L255A non-phosphorylated; DSF.
Description: as §1
Due to limiting protein concentrations, we were unable to obtain a binding curve by fluorescence anisotropy, so we instead used thermal stability measurements to investigate its nucleotide-binding properties. Determination of accurate binding constants from thermal stability measurements requires knowledge of the enthalpy of unfolding. However, for a given protein, the enthalpy of unfolding is independent of the ligand being tested, so comparison of the concentrations of nucleotide required for half maximal stabilisation is valid.
Thermal stabilities as a function of nucleotide concentration were measured by differential scanning fluorimetry (DSF). Samples contained 0.1 mg/ml protein in 50 mM Tris pH 7.5, 150 mM NaCl, 1 mM TCEP, and 5 mM MgCl2 with ADP, ATP, or AMPPNP concentrations ranging from 0–16 mM. Samples were measured in triplicate using a BioRad iQ™5 Multicolor Real-Time PCR Detection System. For detection of phosphorylated protein, samples were diluted and 1 ng and 15 ng were loaded to SDS-PAGE for Src and Itk proteins, respectively. Phosphorylation was measured by immunoblot.
(In DSF a fluorescence change marks the thermal transition of the protein.)

Like-named read-outs stand apart in the source and are kept apart here.

`Nc1ncnc2c1ncn2[C@@H]1O[C@H](COP(=O)(O)OP(=O)(O)O)[C@@H](O)[C@H]1O` [ADP]: on Itk^32K L351A (Itk^32K L351A non-phosphorylated, read-out: Kd), the Kd stood at 21 µM. Besides, the Kd at Itk^32K L351A (activation loop-phosphorylated (pTyr511) Itk^32K L351A, read-out: Kd (binding constant)) was determined as 30 µM. For the same compound, on Src^32KΔC L255A, the “Tm^max” value worked out at 52.9 °C and the “[nuc]1/2 (nucleotide concentration for half maximal stabilisation)” value stood at 310 ± 20 µM.

Broadly, the Kd is the constant that tells how readily two partners part at equilibrium.

The values are drawn from article PMC5727165, “A switch in nucleotide affinity governs activation of the Src and Tec family kinases” (Scientific Reports, 2017).
